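A five-concentration, 48-hour dose response in 96-well plates underlies each endpoint, interpolated linearly between surrounding concentrations. GI50 marks 50% less growth.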 Calls of active or inactive are those of the source. Rule as the data show it: active = GI50 up to about 1.1 µM and inactive = higher.
Key:
Experiment in all cases: inhibition of tumour cell growth, NCI panel, 48 h
786-0 = tested on: 786-0
DU-145 = tested on: DU-145
EKVX = tested on: EKVX
HCT-15 = tested on: HCT-15
IGROV-1 = tested on: IGROV-1
KM12 = tested on: KM12
LOX IMVI = tested on: LOX IMVI
MCF7 = tested on: MCF7
Malme-3M = tested on: Malme-3M
PC-3 = tested on: PC-3
RPMI-8226 = tested on: RPMI-8226
SF-268 = tested on: SF-268
SK-MEL-28 = tested on: SK-MEL-28
SK-MEL-2 = tested on: SK-MEL-2
SK-MEL-5 = tested on: SK-MEL-5
SNB-19 = tested on: SNB-19
T47D = tested on: T47D
U-251 = tested on: U-251
UO-31 = tested on: UO-31
CAKI-1 = tested on: CAKI-1

Structure (SMILES)	GI50 (786-0)	GI50 (DU-145)	GI50 (EKVX)	GI50 (HCT-15) [µM]	GI50 (IGROV-1)	GI50 (KM12)	GI50 (LOX IMVI)	GI50 (MCF7)	GI50 (Malme-3M)	GI50 (PC-3)	GI50 (RPMI-8226)	GI50 (SF-268)	GI50 (SK-MEL-28)	GI50 (SK-MEL-2)	GI50 (SK-MEL-5)	GI50 (SNB-19)	GI50 (T47D)	GI50 (U-251)	GI50 (UO-31)	GI50 (CAKI-1)
NC(=O)CNC(=O)[C@@H]1C[C@@H](OCCC(=O)O)CN1C(=O)OCc1ccccc1	> 100 µM (inactive)	> 100 µM (inactive)	> 100 µM (inactive)	> 100	> 100 µM (inactive)	> 100 µM (inactive)	> 100 µM (inactive)	> 100 µM (inactive)	> 100 µM (inactive)	> 100 µM (inactive)	> 100 µM (inactive)	> 100 µM (inactive)	> 100 µM (inactive)	> 100 µM (inactive)	> 100 µM (inactive)	> 100 µM (inactive)	> 100 µM (inactive)	> 100 µM (inactive)	> 100 µM (inactive)	–
CC(=O)Nc1ccc2nncnc2c1	> 100 µM (inactive)	> 100 µM (inactive)	> 100 µM (inactive)	> 100	> 100 µM (inactive)	> 100 µM (inactive)	> 100 µM (inactive)	> 100 µM (inactive)	–	> 100 µM (inactive)	> 100 µM (inactive)	> 100 µM (inactive)	> 100 µM (inactive)	> 100 µM (inactive)	> 100 µM (inactive)	> 100 µM (inactive)	> 100 µM (inactive)	> 100 µM (inactive)	> 100 µM (inactive)	> 100 µM (inactive)
C[C@@H](NC(=O)Cn1c(Cl)nc2ccccc21)c1ccccc1	> 100 µM (inactive)	> 100 µM (inactive)	26.7 µM (inactive)	> 100	–	> 100 µM (inactive)	75.7 µM (inactive)	> 100 µM (inactive)	> 100 µM (inactive)	> 100 µM (inactive)	> 100 µM (inactive)	> 100 µM (inactive)	> 100 µM (inactive)	> 100 µM (inactive)	17.5 µM (inactive)	> 100 µM (inactive)	36.2 µM (inactive)	> 100 µM (inactive)	> 100 µM (inactive)	> 100 µM (inactive)
C=CCOCn1cc(C)c(=O)[nH]c1=O	> 100 µM (inactive)	> 100 µM (inactive)	> 100 µM (inactive)	> 100	> 100 µM (inactive)	> 100 µM (inactive)	> 100 µM (inactive)	> 100 µM (inactive)	> 100 µM (inactive)	> 100 µM (inactive)	> 100 µM (inactive)	> 100 µM (inactive)	> 100 µM (inactive)	–	> 100 µM (inactive)	> 100 µM (inactive)	> 100 µM (inactive)	–	> 100 µM (inactive)	> 100 µM (inactive)
CO/C(=N\N=C\c1ccc(C(F)(F)F)cc1)c1ccncc1	> 10 µM (inactive)	> 10 µM (inactive)	> 10 µM (inactive)	> 10	–	> 10 µM (inactive)	> 10 µM (inactive)	> 10 µM (inactive)	> 10 µM (inactive)	> 10 µM (inactive)	> 10 µM (inactive)	> 10 µM (inactive)	–	> 10 µM (inactive)	–	> 10 µM (inactive)	> 10 µM (inactive)	> 10 µM (inactive)	> 10 µM (inactive)	> 10 µM (inactive)
O=C1OC(c2ccccc2)N(C(=O)c2ccccc2)C1Cc1ccc(OCc2ccccc2)cc1 (stereo not drawn)	33.1 µM (inactive)	> 100 µM (inactive)	9.57 µM (inactive)	> 100	> 100 µM (inactive)	–	8.11 µM (inactive)	5.48 µM (inactive)	–	34.8 µM (inactive)	87.5 µM (inactive)	10.1 µM (inactive)	> 100 µM (inactive)	31.1 µM (inactive)	43.8 µM (inactive)	> 100 µM (inactive)	> 100 µM (inactive)	> 100 µM (inactive)	21.1 µM (inactive)	–
C[C@]12CC[C@H]3[C@@H](CC=C4C[C@@H](N5CCCC5)CC[C@@]43C)[C@@H]1C[C@H](N1CCOCC1)[C@@H]2O	> 100 µM (inactive)	> 100 µM (inactive)	> 100 µM (inactive)	> 100	> 100 µM (inactive)	> 100 µM (inactive)	> 10 µM (inactive)	> 10 µM (inactive)	> 100 µM (inactive)	> 100 µM (inactive)	> 100 µM (inactive)	> 100 µM (inactive)	> 100 µM (inactive)	–	> 100 µM (inactive)	> 100 µM (inactive)	> 100 µM (inactive)	> 100 µM (inactive)	> 100 µM (inactive)	> 100 µM (inactive)
CCOC1NC(=O)c2ccccc21 (stereo not drawn)	> 100 µM (inactive)	> 100 µM (inactive)	> 100 µM (inactive)	> 100	> 100 µM (inactive)	> 100 µM (inactive)	> 100 µM (inactive)	> 100 µM (inactive)	> 100 µM (inactive)	> 100 µM (inactive)	> 100 µM (inactive)	> 100 µM (inactive)	> 100 µM (inactive)	–	> 100 µM (inactive)	> 100 µM (inactive)	> 100 µM (inactive)	> 100 µM (inactive)	> 100 µM (inactive)	–
CCCCCC/C=C\CCCCCCCCCC1=C(CN2CCN(C)CC2)C(=O)C=C(OC)C1=O	1.67 µM (inactive)	13.4 µM (inactive)	13.6 µM (inactive)	2.47	5.93 µM (inactive)	6.47 µM (inactive)	3.8 µM (inactive)	4.3 µM (inactive)	2.79 µM (inactive)	2.37 µM (inactive)	2 µM (inactive)	5.61 µM (inactive)	13.6 µM (inactive)	–	6.75 µM (inactive)	11.8 µM (inactive)	2.28 µM (inactive)	–	3.03 µM (inactive)	2.73 µM (inactive)
C/C=C(/C)C(=O)O[C@H]1CCN2CC=C(COC(=O)[C@@](O)([C@H](C)OC)C(C)(C)O)[C@H]12	> 100 µM (inactive)	> 100 µM (inactive)	> 100 µM (inactive)	> 100	> 100 µM (inactive)	> 100 µM (inactive)	> 100 µM (inactive)	> 100 µM (inactive)	–	> 100 µM (inactive)	> 100 µM (inactive)	> 100 µM (inactive)	> 100 µM (inactive)	> 100 µM (inactive)	> 100 µM (inactive)	> 100 µM (inactive)	> 100 µM (inactive)	> 100 µM (inactive)	> 100 µM (inactive)	> 100 µM (inactive)
COc1cccc([C@H]2CC(=O)c3cc4c(cc3N2)OCO4)c1	0.418 µM (active)	0.397 µM (active)	–	0.341	0.622 µM (active)	0.317 µM (active)	0.714 µM (active)	0.552 µM (active)	0.671 µM (active)	0.275 µM (active)	0.579 µM (active)	0.646 µM (active)	4.82 µM (inactive)	0.578 µM (active)	0.216 µM (active)	0.312 µM (active)	> 100 µM (inactive)	0.393 µM (active)	0.485 µM (active)	0.384 µM (active)
CCOP(=O)(CC(=O)C1CC1)OCC	> 100 µM (inactive)	> 100 µM (inactive)	> 100 µM (inactive)	> 100	> 100 µM (inactive)	> 100 µM (inactive)	> 100 µM (inactive)	> 100 µM (inactive)	> 100 µM (inactive)	> 100 µM (inactive)	–	> 100 µM (inactive)	> 100 µM (inactive)	> 100 µM (inactive)	> 100 µM (inactive)	> 100 µM (inactive)	> 100 µM (inactive)	> 100 µM (inactive)	> 100 µM (inactive)	> 100 µM (inactive)
O=[As](O)(O)c1ccc2nc3cc([As](=O)(O)O)ccc3nc2c1	> 100 µM (inactive)	> 100 µM (inactive)	> 100 µM (inactive)	> 100	> 100 µM (inactive)	> 100 µM (inactive)	> 100 µM (inactive)	> 100 µM (inactive)	> 100 µM (inactive)	> 100 µM (inactive)	–	> 100 µM (inactive)	> 100 µM (inactive)	> 100 µM (inactive)	> 100 µM (inactive)	> 100 µM (inactive)	> 100 µM (inactive)	> 100 µM (inactive)	> 100 µM (inactive)	> 100 µM (inactive)
C/C(=C\COP(=O)(O)OP(=O)(O)O)CC/C=C(\C)CNc1ccccc1	> 50 µM (inactive)	> 50 µM (inactive)	> 50 µM (inactive)	> 50	11 µM (inactive)	> 50 µM (inactive)	> 50 µM (inactive)	> 50 µM (inactive)	–	> 50 µM (inactive)	0.005 µM (active)	> 50 µM (inactive)	> 50 µM (inactive)	> 50 µM (inactive)	26.9 µM (inactive)	48.1 µM (inactive)	27.4 µM (inactive)	> 50 µM (inactive)	> 50 µM (inactive)	> 50 µM (inactive)
NC(=O)c1nnc2cc(F)ccc2c1N	> 100 µM (inactive)	> 100 µM (inactive)	85.7 µM (inactive)	> 100	> 100 µM (inactive)	> 100 µM (inactive)	78.3 µM (inactive)	> 100 µM (inactive)	> 100 µM (inactive)	> 100 µM (inactive)	> 100 µM (inactive)	> 100 µM (inactive)	–	> 100 µM (inactive)	> 100 µM (inactive)	> 100 µM (inactive)	> 100 µM (inactive)	> 100 µM (inactive)	67.3 µM (inactive)	91.2 µM (inactive)
